In paper PMC11219871, “Epigenetic-based differentiation therapy for Acute Myeloid Leukemia” (Nature Communications, 2024):
Like-named read-outs stand apart in the source and are kept apart here.

Assays:
BAZ2B = biological target: T1, BAZ2B (Homo sapiens, UniProt Q9UIF8); assay: Epigenetic panel (BPS Bioscience); format: binding
T1 construct: purchased BPS Bioscience; Eurofins (HDAC4, 5, 7-11)
Description: (§1) The selectivity of CM-444 and CM-1758 against other epigenetic targets, including histone demethylase (JMJD2A, JMJD2B, JMJD2C, JMJD2D, JMJD2E, JMJD3, JMJD1A, LSD1, Jarid1A, Jarid1B, Jarid1C, FBXL10, FBXL11, JHDM1D, JMJD1B, PHF8, LSD2 and UTX); histone acetyltransferases (GCN5, P300); histone methyltransferases (G9a, GLP, MLL1, SET7/9, SUV39H1, SUV39H2, PRMT1, PRMT3, PRMT4, PRMT5, PRMT6, PRMT8, PRMT9, NSD1, NSD2, EZH1, EZH2, SETDB1, SETD2, SET8, SUV4-20H1, SMYD2, SMYD3, DOT1L, EZH2 (A677G), EZH2 (A677G), EZH2 (A738T), EZH2 (Y641S), EZH2 (P132S), EZH2 (Y641C), EZH2 (Y641F), EZH2 (Y641H), EZH2 (Y641N)); bromodomains (ATAD2B, ATAD2A, BRD1, BRD9, BPTF/FALZ, CeCR2, BRPF3, BRD3 (BD1 + BD2), BAZ2B, WDR9, TAF1 (BD2), TAF1L (BD2), TAF1L (BD1 + BD2), BRD2 (BD1), BRD2 (BD2), BRD2 (BD1 + BD2), BRD3 (BD1), BRD3 (BD2), BRD4 (BD1), BRD4 (BD2), BRD4 (BD1 + BD2), BRDT (BD1), BRDT (BD1 + BD2), CREBBP, SMARCA2A, SMARCA4/BRG1); DNA methyltranferases (DNMT1, DNMT3A/3L and DNMT3B/3L), and sirtuin histone deacetylases (SIRT1, SIRT2, SIRT3, SIRT5 and SIRT6), were determined by BPS Bioscience (http://www.bpsbioscience.com/index.ph). Binding experiments were performed in duplicate at a concentration of 10 μM.

ATAD2B = biological target: T2, ATAD2B (Homo sapiens, UniProt Q9ULI0); assay: Epigenetic panel (BPS Bioscience); format: binding
T2 construct: purchased BPS Bioscience; Eurofins (HDAC4, 5, 7-11)
T2 sequence (Q9ULI0 whole entry): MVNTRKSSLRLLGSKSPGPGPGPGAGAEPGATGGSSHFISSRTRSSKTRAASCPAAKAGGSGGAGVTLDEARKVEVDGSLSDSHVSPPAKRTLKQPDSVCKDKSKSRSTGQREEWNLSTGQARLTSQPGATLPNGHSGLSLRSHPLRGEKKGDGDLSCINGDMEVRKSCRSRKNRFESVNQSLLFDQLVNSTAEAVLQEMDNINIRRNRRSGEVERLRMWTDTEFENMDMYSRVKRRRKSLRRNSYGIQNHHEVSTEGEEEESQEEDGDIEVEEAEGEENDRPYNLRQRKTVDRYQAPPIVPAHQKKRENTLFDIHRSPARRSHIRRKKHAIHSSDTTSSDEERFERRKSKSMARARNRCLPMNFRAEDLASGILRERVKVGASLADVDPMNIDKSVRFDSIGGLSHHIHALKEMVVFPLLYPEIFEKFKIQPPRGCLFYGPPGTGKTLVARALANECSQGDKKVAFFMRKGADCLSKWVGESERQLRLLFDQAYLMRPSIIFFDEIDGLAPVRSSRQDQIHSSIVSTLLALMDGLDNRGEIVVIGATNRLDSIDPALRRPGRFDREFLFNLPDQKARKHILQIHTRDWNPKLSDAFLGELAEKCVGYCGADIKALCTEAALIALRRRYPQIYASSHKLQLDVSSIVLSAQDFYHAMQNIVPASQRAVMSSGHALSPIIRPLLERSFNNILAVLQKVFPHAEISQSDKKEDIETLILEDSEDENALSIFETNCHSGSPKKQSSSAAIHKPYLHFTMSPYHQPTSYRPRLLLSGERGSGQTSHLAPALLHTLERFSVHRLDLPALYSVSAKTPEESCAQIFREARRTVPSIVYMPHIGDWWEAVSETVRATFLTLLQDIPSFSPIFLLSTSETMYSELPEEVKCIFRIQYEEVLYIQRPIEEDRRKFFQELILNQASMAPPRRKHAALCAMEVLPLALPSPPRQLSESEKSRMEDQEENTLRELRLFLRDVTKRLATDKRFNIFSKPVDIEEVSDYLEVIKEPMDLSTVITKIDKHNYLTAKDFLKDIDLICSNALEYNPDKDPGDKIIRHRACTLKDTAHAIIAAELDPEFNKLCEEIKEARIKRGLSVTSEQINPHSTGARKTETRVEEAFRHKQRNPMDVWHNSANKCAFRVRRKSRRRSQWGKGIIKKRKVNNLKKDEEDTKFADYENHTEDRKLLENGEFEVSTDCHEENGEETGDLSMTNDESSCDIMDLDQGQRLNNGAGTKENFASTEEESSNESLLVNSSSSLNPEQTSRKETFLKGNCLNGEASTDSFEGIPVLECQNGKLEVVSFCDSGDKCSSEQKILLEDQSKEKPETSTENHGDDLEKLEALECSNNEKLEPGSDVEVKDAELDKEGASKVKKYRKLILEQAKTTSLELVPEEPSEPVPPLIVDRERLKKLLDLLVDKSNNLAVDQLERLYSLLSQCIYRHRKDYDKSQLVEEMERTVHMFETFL
Description: as §1

BRDT (BD1+BD2) = biological target: T3, BRDT (BD1+BD2) (Homo sapiens, UniProt Q58F21); assay: Epigenetic panel (BPS Bioscience); format: binding
T3 construct: purchased BPS Bioscience; Eurofins (HDAC4, 5, 7-11)
Description: as §1

BRD3 (BD2) = biological target: T4, BRD3 (BD2) (Homo sapiens, UniProt Q15059); assay: Epigenetic panel (BPS Bioscience); format: binding
T4 construct: purchased BPS Bioscience; Eurofins (HDAC4, 5, 7-11)
T4 sequence (Q15059 306-419 limits assumed): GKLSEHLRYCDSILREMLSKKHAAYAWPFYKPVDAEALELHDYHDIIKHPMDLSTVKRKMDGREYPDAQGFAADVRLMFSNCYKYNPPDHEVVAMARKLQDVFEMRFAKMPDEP
Description: as §1

SMARCA4/BRG1 = biological target: T5, SMARCA4/BRG1 (Homo sapiens, UniProt P51532); assay: Epigenetic panel (BPS Bioscience); format: binding
T5 construct: purchased BPS Bioscience; Eurofins (HDAC4, 5, 7-11)
Description: as §1

BRD1 = biological target: T6, BRD1 (Homo sapiens, UniProt O95696); assay: Epigenetic panel (BPS Bioscience); format: binding
T6 construct: purchased BPS Bioscience; Eurofins (HDAC4, 5, 7-11)
Description: as §1

TAF1L (BD1+BD2) = biological target: T7, TAF1L (BD1+BD2) (Homo sapiens, UniProt Q8IZX4); assay: Epigenetic panel (BPS Bioscience); format: binding
T7 construct: purchased BPS Bioscience; Eurofins (HDAC4, 5, 7-11)
T7 sequence (Q8IZX4 1395-1654): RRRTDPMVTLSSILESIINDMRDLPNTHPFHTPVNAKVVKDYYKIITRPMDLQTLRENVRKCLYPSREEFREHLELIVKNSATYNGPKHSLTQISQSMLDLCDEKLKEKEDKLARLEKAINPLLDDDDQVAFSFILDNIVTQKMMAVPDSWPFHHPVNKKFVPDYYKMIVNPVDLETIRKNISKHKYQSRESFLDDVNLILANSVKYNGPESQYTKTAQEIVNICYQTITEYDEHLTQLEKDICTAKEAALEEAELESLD
Description: as §1

BRD4 (BD1+BD2) = biological target: T8, BRD4 (BD1+BD2) (Homo sapiens, UniProt O60885); assay: Epigenetic panel (BPS Bioscience); format: binding
T8 construct: purchased BPS Bioscience; Eurofins (HDAC4, 5, 7-11)
Description: as §1

BRD4 (BD2) = biological target: T9, BRD4 (BD2) (Homo sapiens, UniProt O60885); assay: Epigenetic panel (BPS Bioscience); format: binding
T9 construct: purchased BPS Bioscience; Eurofins (HDAC4, 5, 7-11)
Description: as §1

BRD3 (BD1) = biological target: T10, BRD3 (BD1) (Homo sapiens, UniProt Q15059); assay: Epigenetic panel (BPS Bioscience); format: binding
T10 construct: BRD3 (BD1); purchased BPS Bioscience (contracted assay service)
T10 sequence (Q15059 34-140 limits assumed): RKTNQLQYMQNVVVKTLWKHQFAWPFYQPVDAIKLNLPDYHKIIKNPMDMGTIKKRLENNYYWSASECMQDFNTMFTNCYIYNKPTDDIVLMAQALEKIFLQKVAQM
Description: as §1

BPTF/FALZ = biological target: T11, BPTF/FALZ (Homo sapiens, UniProt Q12830); assay: Epigenetic panel (BPS Bioscience); format: binding
T11 construct: purchased BPS Bioscience; Eurofins (HDAC4, 5, 7-11)
Description: as §1

BRD4 (BD1) = biological target: T12, BRD4 (BD1) (Homo sapiens, UniProt O60885); assay: Epigenetic panel (BPS Bioscience); format: binding
T12 construct: purchased BPS Bioscience; Eurofins (HDAC4, 5, 7-11)
Description: as §1

BRD3 (BD1+BD2) = biological target: T13, BRD3 (BD1+BD2) (Homo sapiens, UniProt Q15059); assay: Epigenetic panel (BPS Bioscience); format: binding
T13 construct: purchased BPS Bioscience; Eurofins (HDAC4, 5, 7-11)
T13 sequence (Q15059 29-419 limits assumed): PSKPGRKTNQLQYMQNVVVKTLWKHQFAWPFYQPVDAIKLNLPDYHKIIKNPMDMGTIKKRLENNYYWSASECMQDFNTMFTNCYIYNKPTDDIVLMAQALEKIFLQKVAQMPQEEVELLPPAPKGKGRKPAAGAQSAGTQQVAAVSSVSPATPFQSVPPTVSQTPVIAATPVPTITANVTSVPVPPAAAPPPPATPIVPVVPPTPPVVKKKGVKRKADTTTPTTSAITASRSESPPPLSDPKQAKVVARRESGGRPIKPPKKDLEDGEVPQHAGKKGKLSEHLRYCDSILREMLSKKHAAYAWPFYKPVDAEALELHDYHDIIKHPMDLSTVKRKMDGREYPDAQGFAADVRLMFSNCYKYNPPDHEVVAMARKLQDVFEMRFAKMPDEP
Description: as §1

TAF1 (BD2) = biological target: T14, TAF1 (BD2) (Homo sapiens, UniProt P21675); assay: Epigenetic panel (BPS Bioscience); format: binding
T14 construct: purchased BPS Bioscience; Eurofins (HDAC4, 5, 7-11)
T14 sequence (P21675 1522-1656 limits assumed): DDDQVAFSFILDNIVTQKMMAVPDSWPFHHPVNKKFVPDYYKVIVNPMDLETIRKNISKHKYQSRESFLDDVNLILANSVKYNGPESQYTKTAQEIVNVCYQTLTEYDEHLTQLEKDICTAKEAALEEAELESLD
Description: as §1

BRD2 (BD1) = biological target: T15, BRD2 (BD1) (Homo sapiens, UniProt P25440); assay: Epigenetic panel (BPS Bioscience); format: binding
T15 construct: BRD2 (BD1); purchased BPS Bioscience (contracted assay service)
T15 sequence (P25440 74-180 limits assumed): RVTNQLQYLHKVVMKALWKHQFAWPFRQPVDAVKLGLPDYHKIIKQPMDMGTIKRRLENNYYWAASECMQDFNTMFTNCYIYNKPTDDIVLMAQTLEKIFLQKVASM
Description: as §1

WDR9 = biological target: T16, WDR9 (Homo sapiens, UniProt Q9NSI6); assay: Epigenetic panel (BPS Bioscience); format: binding
T16 construct: purchased BPS Bioscience (contracted assay service)
T16 sequence (Q9NSI6 whole entry): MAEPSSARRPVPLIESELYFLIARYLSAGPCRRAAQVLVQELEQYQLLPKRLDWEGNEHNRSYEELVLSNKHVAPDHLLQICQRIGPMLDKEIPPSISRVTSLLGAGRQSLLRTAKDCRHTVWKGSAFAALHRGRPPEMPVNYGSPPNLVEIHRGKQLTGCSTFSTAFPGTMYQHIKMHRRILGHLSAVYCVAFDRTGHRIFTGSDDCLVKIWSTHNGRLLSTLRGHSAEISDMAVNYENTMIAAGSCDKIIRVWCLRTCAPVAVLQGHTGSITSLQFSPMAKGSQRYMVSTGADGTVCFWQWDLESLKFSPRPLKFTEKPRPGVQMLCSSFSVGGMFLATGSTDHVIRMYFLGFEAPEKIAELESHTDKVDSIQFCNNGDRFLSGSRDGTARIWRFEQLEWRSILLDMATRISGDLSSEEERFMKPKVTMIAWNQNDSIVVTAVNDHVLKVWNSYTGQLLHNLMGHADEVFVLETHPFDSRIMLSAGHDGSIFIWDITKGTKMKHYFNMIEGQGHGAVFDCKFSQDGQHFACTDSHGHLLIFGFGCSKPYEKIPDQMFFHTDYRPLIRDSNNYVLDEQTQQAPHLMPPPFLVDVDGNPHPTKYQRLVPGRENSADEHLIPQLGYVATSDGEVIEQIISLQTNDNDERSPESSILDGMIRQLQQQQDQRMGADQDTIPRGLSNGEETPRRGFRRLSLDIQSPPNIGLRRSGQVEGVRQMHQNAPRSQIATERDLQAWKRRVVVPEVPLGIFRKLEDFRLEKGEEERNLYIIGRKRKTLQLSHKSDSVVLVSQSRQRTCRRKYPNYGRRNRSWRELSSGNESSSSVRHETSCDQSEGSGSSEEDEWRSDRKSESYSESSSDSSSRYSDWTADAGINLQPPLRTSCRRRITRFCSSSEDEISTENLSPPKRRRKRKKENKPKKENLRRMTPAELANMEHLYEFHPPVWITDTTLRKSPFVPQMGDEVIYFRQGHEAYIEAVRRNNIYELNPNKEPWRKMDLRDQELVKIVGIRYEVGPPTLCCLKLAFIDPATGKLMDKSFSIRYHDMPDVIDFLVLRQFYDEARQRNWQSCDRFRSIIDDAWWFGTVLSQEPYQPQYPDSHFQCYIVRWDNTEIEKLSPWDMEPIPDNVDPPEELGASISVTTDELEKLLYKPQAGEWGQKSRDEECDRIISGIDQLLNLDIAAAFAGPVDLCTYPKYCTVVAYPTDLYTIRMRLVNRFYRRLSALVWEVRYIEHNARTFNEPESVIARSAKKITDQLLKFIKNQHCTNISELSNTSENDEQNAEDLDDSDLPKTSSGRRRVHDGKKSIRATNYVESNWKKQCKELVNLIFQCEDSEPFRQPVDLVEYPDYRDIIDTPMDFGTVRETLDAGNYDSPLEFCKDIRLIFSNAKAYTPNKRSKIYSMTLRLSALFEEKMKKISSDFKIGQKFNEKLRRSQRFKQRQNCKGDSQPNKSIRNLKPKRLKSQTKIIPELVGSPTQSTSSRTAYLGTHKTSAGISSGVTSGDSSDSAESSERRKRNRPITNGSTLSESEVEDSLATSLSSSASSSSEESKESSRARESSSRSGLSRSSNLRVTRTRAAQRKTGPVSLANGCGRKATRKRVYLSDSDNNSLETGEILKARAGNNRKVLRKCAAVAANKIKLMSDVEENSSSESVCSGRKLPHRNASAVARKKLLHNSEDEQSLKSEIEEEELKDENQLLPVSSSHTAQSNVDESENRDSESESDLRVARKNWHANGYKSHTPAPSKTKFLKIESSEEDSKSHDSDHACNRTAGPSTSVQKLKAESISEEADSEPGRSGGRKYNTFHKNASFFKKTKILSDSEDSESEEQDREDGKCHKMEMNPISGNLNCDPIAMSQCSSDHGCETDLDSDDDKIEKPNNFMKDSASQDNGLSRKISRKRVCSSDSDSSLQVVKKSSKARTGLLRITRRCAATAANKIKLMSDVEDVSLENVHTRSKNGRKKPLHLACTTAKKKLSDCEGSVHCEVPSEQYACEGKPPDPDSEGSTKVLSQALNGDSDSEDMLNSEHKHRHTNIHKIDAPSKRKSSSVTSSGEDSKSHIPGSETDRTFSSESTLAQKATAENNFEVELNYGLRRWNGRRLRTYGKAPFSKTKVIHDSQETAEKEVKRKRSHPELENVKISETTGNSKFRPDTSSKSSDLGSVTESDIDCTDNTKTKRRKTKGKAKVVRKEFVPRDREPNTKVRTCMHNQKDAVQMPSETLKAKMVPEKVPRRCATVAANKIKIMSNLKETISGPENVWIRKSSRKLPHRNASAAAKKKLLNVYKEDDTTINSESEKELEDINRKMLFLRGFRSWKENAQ
Description: as §1

ATAD2A = biological target: T17, ATAD2A (Homo sapiens, UniProt Q6PL18); assay: Epigenetic panel (BPS Bioscience); format: binding
T17 construct: purchased BPS Bioscience; Eurofins (HDAC4, 5, 7-11)
Description: as §1

[1] = Liver microsomal stability; format: in vitro ADME; conditions: read-out: Liver Microsomal Stability Estimation T1/2
Description: This study was conducted at Wuxi (http://www.wuxi.com/). […] A 5-μL aliquot of stock solution of test compound (10 mM; 100% DMSO) was diluted in 495 μL of […] (final concentration of 100 μM, 99% MeOH). Then, 50 μL of this intermediate solution was diluted in 450 μL of 100 mM potassium phosphate buffer to a concentration of 10 μM (working solution, 9.9% MeOH). The β-nicotinamide adenine dinucleotide phosphate reduced form (NADPH) regenerating system also contained tetrasodium salt, NADPH•4Na (Sigma, Cat.# No.00616). Human liver microsomes were obtained from Corning (Cat.#452117), and C57 mouse liver microsomes from Xenotech (Cat.#M5000), at a final concentration of 0.5 mg protein/mL. A volume of 10 μL of working solution of test and control compounds (testosterone, diclofenac and propafenone) and 80 μL/well microsome solution were added to a 96-well plate and incubated for 10 min at 37 °C. The reaction was started by the addition of 10 μL of NADPH regenerating system and stopped by the addition of 300 μL of stop solution (acetonitrile at 4 °C, including 100 ng/mL tolbutamide and 100 ng/mL of labetalol as internal standard) at different incubation times (0, 5, 10, 20, 30, and 60 min). Then, the samples were shaken for 10 min and centrifuged at 1699 g for 20 min at 4 °C. An aliquot of supernatant (100 μL) was transferred from each well and mixed with 300 μL of ultra-pure water before submitting to LC-MS/MS analysis. Concentrations of test and control compounds were quantified by LC-MS/MS using a peak area ratio of analyte/internal standard, and the percent loss of the parent compound was calculated at each time point to determine the half-life (t1/2, min). Experiments were performed in duplicate.

Row | SMILES | inhibition at 10 µM (BAZ2B) | inhibition at 10 µM (ATAD2B) | inhibition at 10 µM (BRDT (BD1+BD2)) | inhibition at 10 µM (BRD3 (BD2)) | inhibition at 10 µM (SMARCA4/BRG1) | inhibition at 10 µM (BRD1) | inhibition at 10 µM (TAF1L (BD1+BD2)) | inhibition at 10 µM (BRD4 (BD1+BD2)) | inhibition at 10 µM (BRD4 (BD2)) | inhibition at 10 µM (BRD3 (BD1)) | inhibition at 10 µM (BPTF/FALZ) | inhibition at 10 µM (BRD4 (BD1)) | inhibition at 10 µM (BRD3 (BD1+BD2)) | inhibition at 10 µM (TAF1 (BD2)) | inhibition at 10 µM (BRD2 (BD1)) | inhibition at 10 µM (WDR9) | inhibition at 10 µM (ATAD2A) | half-life at 1 µM ([1]; C57, mouse liver microsomes) | half-life at 1 µM ([1]; human liver microsomes) | other results
1 | COc1cc2nc(-c3ccc(C)o3)cc(NCC3CCN(c4ncc(C(=O)NO)cn4)CC3)c2cc1OC [CM-444, 2-[4-[[[6,7-dimethoxy-2-(5-methyl-2-furyl)-4-quinolyl]amino]methyl]-1-piperidyl]pyrimidine-5-carbohydroxamic acid] | 0% | 0% | 38% | 0% | 0% | 0% | 0% | 41% | 0% | 20% | 0% | 6% | 43% | 0% | 71% | 51% | 0% | 18.4 min | 28.8 min | IC50 (BRD2 (BD1)): 30.8 µM; IC50 (WDR9): > 50 µM
2 | COc1cc2nc(-c3cc(C)oc3C)cc(NCC3CCN(c4ncc(C(=O)NO)cn4)CC3)c2cc1OC [CM-1758, 2-[4-[[[2-(2,5-dimethyl-3-furyl)-6,7-dimethoxy-4-quinolyl]amino]methyl] -1-piperidyl]pyrimidine-5-carbohydroxamic acid] | 0% | 13% | 17% | 0% | 18% | 3% | 0% | 50% | 0% | 60% | 0% | 0% | 29% | 0% | 25% | 35% | 0% | 12.5 min | 37.9 min | IC50 (BRD3 (BD1)): > 50 µM
